Values quoted from earlier work, collected in paper PMC7926471 (Viruses, 2021).

System: SARS-CoV-2
Details: pre and post treatment of Vero E6 cultures; cited from earlier work

Compound: CCN(CC)CCCC(C)Nc1ccnc2cc(Cl)ccc12 (centres unmarked) [Chloroquine, chloroquine diphosphate]
- EC50: 1.13 µM
- EC90: 6.9 µM
